# Laboratory results as given in article PMC6257670 (2010).
# Test system: biotinylated m012 (RNA, aptamer) GGCGAAUUCUUCCGUUAUUGGAGCCAAGUCGCC
# Assay: competitive ELAA, absorbance 405 nm
# Details: 150 mM NaCl, 5 mM MgCl2; 50 mM HEPES pH 7.4 (wash), 25 °C; biotinylated SPC (6 µM) displaced; immobilised aptamer
compound,measurement,value
CCCCCCCCCCCCC/C=C/[C@@H](O)[C@@H](N)COP(=O)([O-])OCC[N+](C)(C)C,binding,yes
